A short description of data set [1]: Selectivity index, ratio of CC50 for human HePAD38 cells to EC50 for hepatitis B virus infected in HePAD38 cells. It is filed as toxicity, cell-based. Particulars: read-out: Ratio CC50/EC50.
Data set [2] is described as follows: Cytotoxicity against human HePAD38 cells by CCK8 assay. It is filed as toxicity, cell-based. Background: Formazan colour is commonly taken as a measure of viable cells.
Data set [3] deals with Hepatitis B virus. Put plainly: Antiviral activity against Hepatitis B virus infected in human HePAD38 cells assessed as inhibition of viral DNA replication by qPCR analysis. It is filed as functional, organism-based. (In qPCR the cycle at which signal appears reflects the starting amount.)
A short description of data set [4]: AUC (0 to infinity) in male Beagle dog at 1.5 mg/kg, po administered via gavage and measured after 24 hrs by LC-MS/MS analysis. Particulars: in vivo. Format: ADME, organism-based, Canis lupus familiaris.
Data set [5] is described as follows: Cmax in male Beagle dog at 1.5 mg/kg, po administered via gavage and measured after 24 hrs by LC-MS/MS analysis. It is filed as ADME, organism-based, Canis lupus familiaris. The following applies: in vivo.
Data set [6] in a line: Octanol/water partition coefficient, log P of the compound. It is filed as physicochemical.
Data set [7] in a line: Metabolic stability in human liver microsomes assessed as intrinsic clearance. Format: ADME, Microsome. Particulars: read-out: CLH. (In general: Liver microsomes are vesicles of endoplasmic reticulum, rich in cytochrome P450 enzymes.)
Data set [8] can be described thus: Metabolic stability in human liver microsomes assessed as half-life. Format: ADME, Microsome.
Data set [9] deals with Core antigen (Hepatitis B virus, UniProt Q03732). Put plainly: Inhibition of Hepatitis B virus Capsid protein assembly activity by fluorescence based analysis.
Chain of Core antigen (Q03732 whole entry): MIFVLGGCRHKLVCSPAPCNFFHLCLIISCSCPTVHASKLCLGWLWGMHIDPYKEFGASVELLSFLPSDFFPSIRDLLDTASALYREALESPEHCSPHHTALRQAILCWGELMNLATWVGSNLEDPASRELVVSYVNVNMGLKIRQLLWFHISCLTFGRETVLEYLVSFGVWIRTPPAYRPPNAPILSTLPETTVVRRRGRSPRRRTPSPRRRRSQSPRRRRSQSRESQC
The nature of data set [10]: Metabolic stability in human plasma assessed as parent compound remaining measured immediately. Format: ADME, cell-free. The following applies: read-out: Stability.
The nature of data set [11]: Metabolic stability in human plasma assessed as parent compound remaining measured after 120 mins. It is filed as ADME, cell-free. The following applies: read-out: Stability.
Data set [12] is described as follows: Metabolic stability in human plasma assessed as parent compound remaining measured after 60 mins. It is filed as ADME, cell-free. Particulars: read-out: Stability.
Data set [13] can be described thus: Metabolic stability in human plasma assessed as half-life. It is filed as ADME, cell-free.
Data set [14] is described as follows: Metabolic stability in human plasma assessed as parent compound remaining measured after 10 mins. It is filed as ADME, cell-free. Particulars: read-out: Stability.
Data set [15] in a line: Metabolic stability in human liver assessed as intrinsic clearance. The following applies: read-out: CLH. It is filed as ADME, tissue-based.
Data set [16] can be described thus: Metabolic stability in human plasma assessed as parent compound remaining measured after 30 mins. It is filed as ADME, cell-free. The following applies: read-out: Stability.
Data set [17] can be described thus: Metabolic stability in human liver microsomes assessed as parent compound remaining measured after 60 mins in presence of NADPH co-factor. Format: ADME, Microsome. Particulars: read-out: Stability.
The nature of data set [18]: Metabolic stability in human liver microsomes assessed as parent compound remaining measured after 60 mins in absence of NADPH co-factor. Format: ADME, Microsome. The following applies: read-out: Stability.

From ChEMBL document CHEMBL6127026, “Design, synthesis and anti-HBV activity study of novel HBV capsid assembly modulators” (Bioorg Med Chem Lett, 2024) come the findings set out here.

For `O=C(Nc1ccc(F)cc1)c1cc(S(=O)(=O)NC2CCCC2)cc2c1OCCO2`, the selectivity ratio in data set [1] was more than 98.2. Also, in [2], the CC50 was more than 100 µM. The half-maximal effective concentration (EC50) in data set [3] turned out to be 1 µM.

Consider `O=C(NC1CCCC1)c1cc(S(=O)(=O)NC2CCCC2)cc2c1OCCO2`, for which, in data set [2], the CC50 was more than 100 µM. Besides, the EC50 in [3] is more than 20 µM.

Regarding `O=C(Nc1cc(F)c(F)c(F)c1)c1ccc(F)c(S(=O)(=O)N2CCC(O)CC2)c1`, the AUC(0-inf) in data set [4] was 3500 ng·h/mL. The compound further registered a Cmax in data set [5] of 560 ng/mL. Besides, in data set [1], the selectivity ratio worked out at 88.4. Also, it took 20.8 µM to reach half-maximal cytotoxicity in [2] (CC50). Further, the EC50 in data set [3] was determined as 0.29 µM. The logP in data set [6] turned out to be 1.75.

Turning to `O=C(Nc1ccc(F)c(Cl)c1)c1cc(S(=O)(=O)Nc2nccs2)cc2c1OCCO2`, the CC50 in data set [2] was more than 100 µM. In addition, the EC50 in data set [3] was more than 20 µM.

Compound `O=C(NC1CCCC1)c1cc2c(c(S(=O)(=O)Nc3ccc(F)c(Cl)c3)c1)OCCO2` had a CC50 in [2] of more than 100 µM. In data set [3], the EC50 is more than 20 µM.

As to `O=C(c1cc(S(=O)(=O)NC2CCCC2)cc2c1OCCO2)N1CCC(O)CC1`, the CC50 in [2] is more than 100 µM. Moreover, in [3], the EC50 is more than 20 µM.

With `O=C(Nc1ccc(F)c(Cl)c1)c1cc2c(c(S(=O)(=O)Nc3ccc(F)c(Cl)c3)c1)OCCO2`, the selectivity ratio in data set [1] was 1.46. For the same compound, the CC50 in [2] was 6.64 µM. Moreover, the 50% effective concentration (EC50) in data set [3] worked out at 4.56 µM.

On to `O=C(Nc1ccc(F)c(F)c1)c1cc(S(=O)(=O)NC2CCCC2)cc2c1OCCO2`, for which the selectivity ratio in data set [1] came to 89. This compound also yielded a half-maximal cytotoxic concentration (CC50) in data set [2] of 81.4 µM. Moreover, the EC50 in data set [3] came to 0.91 µM.

As to `O=C(NC1CCCC1)c1cc(S(=O)(=O)Nc2ccc(F)c(Cl)c2)cc2c1OCCO2`, the selectivity ratio in data set [1] was more than 93. Also, the CC50 in data set [2] was more than 100 µM. The EC50 in data set [3] stood at 1.07 µM.

`O=C(Nc1ccc(F)c(Cl)c1)c1cc(S(=O)(=O)Nc2ccsc2)cc2c1OCCO2`: the selectivity ratio in data set [1] is more than 116. The compound also yielded a CC50 in data set [2] of more than 100 µM. Also, the EC50 in data set [3] was 0.86 µM.

Regarding `Cc1cc(NC(=O)c2cc(S(=O)(=O)NC3CCCC3)cc3c2OCCO3)ccc1F`, the selectivity ratio in data set [1] amounted to 104. The compound further yielded a CC50 in data set [2] of 51 µM. In addition, the concentration giving a half-maximal response (EC50) in data set [3] came out at 0.49 µM.

In the case of `O=C(Nc1cc(F)cc(F)c1)c1cc(S(=O)(=O)NC2CCCC2)cc2c1OCCO2`, the selectivity ratio in data set [1] is more than 232. The compound also displayed a CC50 in data set [2] of more than 100 µM. For the same compound, the EC50 in data set [3] turned out to be 0.43 µM.

As to `O=C(Nc1cc(F)c(F)c(F)c1)c1cc(S(=O)(=O)NC2CCCC2)cc2c1OCCO2`, in data set [7], the microsomal CLint stood at 99.8 µL/min/mg. Besides, the results for the half-life in data set [8] and in data set [13] were 13.9 min and more than 289 min, respectively. The IC50 in data set [9] came out at 1.45 µM. Further, the remaining at 0 min in data set [10] is 100%. The remaining at 2 h in data set [11] worked out at 99.4%. Besides, the values for the remaining at 1 h in data set [12], in [17] and in data set [18] were 115%, 5% and 84.1%, respectively. Besides, the selectivity ratio in data set [1] is more than 419. Also, in data set [14], the remaining at 10 min amounted to 115%. The compound further displayed a CC50 in [2] of more than 100 µM. Further, in data set [3], the EC50 came to 0.24 µM. Moreover, the CLint scaled in data set [15] is 89.8 mL/min/kg. Besides, the remaining at 0.5 h in data set [16] was 112%. Also, the logP in data set [6] (read-out: logP) is 1.59.

Regarding `N#Cc1cc(NC(=O)c2cc(S(=O)(=O)NC3CCCC3)cc3c2OCCO3)ccc1F`, the selectivity ratio in data set [1] is more than 65.3. In addition, the CC50 in data set [2] is more than 100 µM. The EC50 in data set [3] was determined as 1.53 µM.

For `O=C(NC1CCCC1)c1cc2c(c(S(=O)(=O)Nc3cc(F)c(F)c(F)c3)c1)OCCO2`, the selectivity ratio in data set [1] stood at 2.79. In addition, the CC50 in data set [2] came out at 20.5 µM. Further, the EC50 in data set [3] stood at 7.36 µM.

Regarding `CC(C)[N+](C)(CCOC(=O)C1c2ccccc2Oc2ccccc21)C(C)C.[Br-]` [PROPANTHELINE BROMIDE], in [12], the remaining at 1 h was 0.4%. Further, the half-life in data set [13] was found to be 7.4 min. In addition, the remaining at 10 min in data set [14] is 52%. For the same compound, the remaining at 0.5 h in data set [16] worked out at 8.3%.

For the compound `O=C(NC1CCCC1)c1cc(S(=O)(=O)Nc2cc(F)c(F)c(F)c2)cc2c1OCCO2`, the CC50 in data set [2] is more than 100 µM. Moreover, the EC50 in data set [3] was more than 20 µM.

For the compound `O=C(O)Cc1ccccc1Nc1c(Cl)cccc1Cl` [DICLOFENAC], the CLint scaled in data set [15] is 232 mL/min/kg.

As for `O=C(Nc1ccc(F)c(Cl)c1)c1cc(S(=O)(=O)NC2CCCC2)cc2c1OCCO2`, the IC50 in data set [9] was 4.22 µM. For the same compound, the selectivity ratio in [1] amounted to 95.5. In data set [2], this compound came in with a CC50 of 48.2 µM. For the same compound, in data set [3], the EC50 came to 0.5 µM.

The CC50 is the concentration giving 50% cytotoxicity. What is called EC50 is the concentration needed to bring the measured effect to its halfway point. By AUC(0-inf) is commonly meant total exposure, with the tail of the curve extrapolated. A higher AUC(0-inf) goes with high exposure. What is called Cmax is the peak of the concentration-time curve. By logP is commonly meant a log measure of how a compound divides between an organic and an aqueous phase. Usually half-life stands for how long it takes for the measured level to halve. The term IC50 denotes the concentration that gives 50% inhibition.
